Tested on: Borreria verticillata
Assay: Post-emergence herbicidal efficacy of L-glufosinate ammonium, additional herbicides and their combinations (observed vs Colby expected)
Type: in vivo
Description: Methodology: Trials were carried out to evaluate the efficacy of the combination comprising L-glufosinate ammonium and the additional herbicides on Spermacoce genus weeds.
The soil used was sandy clay loam-sand: 68.0%; silt: 8.0%; clay: 24.0%.
All treatments were in 4 replications per treatment with a spray volume of about 150 L/ha.
Efficacy Evaluation: The expected efficacy of the combination comprising L-glufosinate ammonium and additional herbicides was calculated using the well-established Colby method.
In the Colby method, the expected (or predicted) response of a combination of herbicides is calculated by taking the product of the observed response for each individual component of the combination when applied alone, divided by 100, and subtracting this value from the sum of the observed response for each component when applied alone. An unexpected enhancement in efficacy of the combination is then determined by comparing the observed response of the combination to the expected (or predicted) response as calculated from the observed response of each individual component alone. If the observed response of the combination is greater than the expected (or predicted) response, or stated conversely, if the difference between the observed and expected response is greater than zero, then the combination is said to be synergistic or unexpectedly effective (Colby, S. R., Weeds, 1967(15), p. 20-22). The Colby method requires only a single dose of each herbicide applied alone and the mixture of both doses. The formula used to calculate the expected efficacy (EE) which was compared with the observed efficacy (OE) to determine the efficacy of the present disclosure is explained hereinbelow:
The expected efficacy for a combination of two active ingredients is as follows:
The expected efficacy for a combination of three active ingredients is as follows: […]

Compound: C[N+](C)(C)CCO.O=C([O-])COc1ccc(Cl)cc1Cl [2,4-D choline, 2,4-dichlorophenoxyacetic acid (2,4-D) choline]
- Observed efficacy (%) of 2,4-D choline (137 g a.i./ha) (7 DAA, 137 g a.i./ha, Example 9): 30%
- Observed efficacy (%) of 2,4-D choline (228 g a.i./ha) (7 DAA, 228 g a.i./ha, Example 10): 30%

Compound: COc1c(Cl)ccc(Cl)c1C(=O)O [Dicamba]
- Observed efficacy (%) of Dicamba (228 g a.i./ha) (7 DAA, 228 g a.i./ha, Example 1): 45%
- Observed efficacy (%) of Dicamba (228 g a.i./ha) (28 DAA, 228 g a.i./ha, Example 1): 40%

Compound: COc1c(Cl)ccc(-c2nc(C(=O)OCc3ccccc3)c(Cl)c(N)c2F)c1F [Florpyrauxifen-benzyl]
- Observed efficacy (%) of Florpyrauxifen-benzyl (15 g a.i./ha) (7 DAA, Example 2): 30%
- Observed efficacy (%) of Florpyrauxifen-benzyl (15 g a.i./ha) (28 DAA, Example 2): 20%

Compound: COCc1cnc(C2=NC(C)(C(C)C)C(=O)N2)c(C(=O)O)c1 (stereo not drawn) [Imazamox]
- Observed efficacy (%) of Imazamox (21 g a.i./ha) (3 DAA, 21 g a.i./ha, Example 6): 10%

Compound: Cc1cnc(C2=NC(=O)C(C)(C(C)C)N2)c(C(=O)O)c1 (stereo not drawn) [Imazapic]
- Observed efficacy (%) of Imazapic (59 g a.i./ha) (3 DAA, Example 7): 10%
- Observed efficacy (%) of Imazapic (59 g a.i./ha) (7 DAA, Example 7): 20%
- Observed efficacy (%) of Imazapic (59 g a.i./ha) (14 DAA, Example 7): 35%
- Observed efficacy (%) of Imazapic (59 g a.i./ha) (21 DAA, Example 7): 30%
- Observed efficacy (%) of Imazapic (59 g a.i./ha) (28 DAA, Example 7): 40%
- Observed efficacy (%) of Imazapic (59 g a.i./ha) (35 DAA, Example 7): 60%

Compound: CP(=O)(O)CC[C@H](N)C(=O)O.N [L-glufosinate ammonium]
- Observed efficacy (%) of L-glufosinate ammonium (Glufosinate-P-ammonium) (150 g a.i./ha) (3 DAA, Example 6): 55%
- Observed efficacy (%) of L-glufosinate ammonium (Glufosinate-P-ammonium) (150 g a.i./ha) (3 DAA, Example 7): 50%
- Observed efficacy (%) of L-glufosinate ammonium (Glufosinate-P-ammonium) (150 g a.i./ha) (3 DAA, Example 8): 50%
- Observed efficacy (%) of L-glufosinate ammonium (Glufosinate-P-ammonium) (150 g a.i./ha) (7 DAA, Example 1): 65%
- Observed efficacy (%) of L-glufosinate ammonium (Glufosinate-P-ammonium) (150 g a.i./ha) (7 DAA, Example 2): 65%
- Observed efficacy (%) of L-glufosinate ammonium (Glufosinate-P-ammonium) (150 g a.i./ha) (7 DAA, Example 3): 85%
- Observed efficacy (%) of L-glufosinate ammonium (Glufosinate-P-ammonium) (150 g a.i./ha) (7 DAA, Example 5): 90%
- Observed efficacy (%) of L-glufosinate ammonium (Glufosinate-P-ammonium) (150 g a.i./ha) (7 DAA, Example 7): 80%
- Observed efficacy (%) of L-glufosinate ammonium (Glufosinate-P-ammonium) (150 g a.i./ha) (7 DAA, Example 8): 80%
- Observed efficacy (%) of L-glufosinate ammonium (Glufosinate-P-ammonium) (150 g a.i./ha) (14 DAA, Example 3): 80%
- Observed efficacy (%) of L-glufosinate ammonium (Glufosinate-P-ammonium) (150 g a.i./ha) (14 DAA, Example 5): 80%
- Observed efficacy (%) of L-glufosinate ammonium (Glufosinate-P-ammonium) (150 g a.i./ha) (14 DAA, Example 7): 95%
- Observed efficacy (%) of L-glufosinate ammonium (Glufosinate-P-ammonium) (150 g a.i./ha) (14 DAA, Example 8): 95%
- Observed efficacy (%) of L-glufosinate ammonium (Glufosinate-P-ammonium) (150 g a.i./ha) (21 DAA, Example 7): 90%
- Observed efficacy (%) of L-glufosinate ammonium (Glufosinate-P-ammonium) (150 g a.i./ha) (21 DAA, Example 8): 90%
- Observed efficacy (%) of L-glufosinate ammonium (Glufosinate-P-ammonium) (150 g a.i./ha) (28 DAA, Example 1): 95%
- Observed efficacy (%) of L-glufosinate ammonium (Glufosinate-P-ammonium) (150 g a.i./ha) (28 DAA, Example 2): 95%
- Observed efficacy (%) of L-glufosinate ammonium (Glufosinate-P-ammonium) (150 g a.i./ha) (28 DAA, Example 4): 90%
- Observed efficacy (%) of L-glufosinate ammonium (Glufosinate-P-ammonium) (150 g a.i./ha) (28 DAA, Example 7): 90%
- Observed efficacy (%) of L-glufosinate ammonium (Glufosinate-P-ammonium) (150 g a.i./ha) (28 DAA, Example 8): 90%
- Observed efficacy (%) of L-glufosinate ammonium (Glufosinate-P-ammonium) (150 g a.i./ha) (35 DAA, Example 4): 85%
- Observed efficacy (%) of L-glufosinate ammonium (Glufosinate-P-ammonium) (150 g a.i./ha) (35 DAA, Example 7): 85%
- Observed efficacy (%) of L-glufosinate ammonium (Glufosinate-P-ammonium) (150 g a.i./ha) (35 DAA, Example 8): 85%

Compound: CS(=O)(=O)c1ccc(C(=O)C2C(=O)CCCC2=O)c([N+](=O)[O-])c1 [Mesotrione]
- Observed efficacy (%) of Mesotrione (360 g a.i./ha) (28 DAA, Example 4): 75%
- Observed efficacy (%) of Mesotrione (360 g a.i./ha) (35 DAA, Example 4): 75%

Compound: CSc1nnc(C(C)(C)C)c(=O)n1N [Metribuzin]
- Observed efficacy (%) of Metribuzin (360 g a.i./ha) (7 DAA, Example 5): 90%
- Observed efficacy (%) of Metribuzin (360 g a.i./ha) (14 DAA, Example 5): 30%

Compound: CCOc1cc(Oc2ccc(C(F)(F)F)cc2Cl)ccc1[N+](=O)[O-] [Oxyfluorfen]
- Observed efficacy (%) of Oxyfluorfen (430 g a.i./ha) (7 DAA, Example 3): 65%
- Observed efficacy (%) of Oxyfluorfen (430 g a.i./ha) (14 DAA, Example 3): 70%
